Measurements as given in EP1401829B1, “NOVEL HETEROCYCLIC ANTIBACTERIAL COMPOUNDS” (Microbiotix, Inc., priority 2001, dated 2002).
Values after ≈ are worked out from the molar mass of the structure shown.

Columns and labels:
[1] = tested on: S.aureus (Smith); assay: Minimal Inhibitory Concentration (MIC) determination, 96 well plates; format: cell-based, Staphylococcus aureus; conditions: Staphylococcus aureus; HBI medium, 16 to 18 hours at 37°C; read-out: MIC (µg/ml) S.aureus (Smith)
Protocol: (§1) The following methods were used to characterize representative compounds. Minimal Inhibitory Concentration (MIC) determinations. MIC values were determined in 96 well plates, with bacterial growth monitored at OD 600 nm in 200µl following an initial bacterial seeding at approximately 1x10^5 colony forming units (CFU)/ml. Each drug is evaluated at five concentrations, with five data points at each dilution. MIC values (µg/ml) were determined against actively growing cultures in Heart-Brain Infusion (HBI) medium. Cell growth in cultures supplemented with a test compound was calculated as a percent of control at OD 600 nm after 16 to 18 hours at 37°C. […] Polymerase IIIC (Pol IIIC) assay. DNA polymerase activity (or inhibition thereof) was measured in a 96-well plate format. B. subtilis Pol IIIC was isolated as described by Hammond and Brown (Protein Expr. Purif., 3: 65-70 (1992)). Each 25 µl assay contained 30 mM Tris, pH 7.5, 10 mM magnesium acetate, 4 mM dithiothreitol, 20% glycerol, with 25 µM dATP, dCTP, dGTP and 10 µM dTTP (^3H-labelled at 1.44 Ci/mmole) and 0.4 mg/ml activated calf thymus DNA as substrates, as described previously (see Barnes et al, op. cit). Assays were initiated by the addition of 0.025 to 0.06 units of enzyme 1 unit is the amount required to incorporate 250 pmoles of [^3H] dTMP in a standard assay), incubated for 10 minutes at 30°C and terminated by the addition of 200 µl of cold 10% trichloroacetic acid (TCA),10 mM sodium pyrophosphate. Precipitated labeled DNA was collected on glass fiber filter plates, washed, dried, and counted in a liquid scintillation counter. Determination of Ki values. DNA polymerase activity was measured in a 96-well plate format in the absence of dGTP or dATP, depending on the structure of the test compound. Each 25 µl assay contained 30 mM Tris, pH 7.5, 10 mM magnesium acetate, 4 mM dithiothreitol, 20% glycerol, with 25 µM dATP, dCTP, and 10 µM dTTP (^3H-labelled at 1.44 Ci/mmole) and 0.4 mg/ml activated calf thymus DNA as substrates, as described previously. […] Assays were initiated by the addition of 0.025 to 0.06 units of enzyme (1 unit is the amount required to incorporate 250 pmoles of [^3H] dTMP in a standard assay), incubated for 10 minutes at 30 °C and terminated by the addition of 200 µl of cold 10% trichloroacetic acid, 10 mM sodium pyrophosphate. Precipitated labeled DNA was collected on glass fiber filter plates, washed, dried, and counted in a liquid scintillation counter. Ki is the concentration of test compound that reduces the control polymerase IIIC activity by 50 percent.
(§2) MIC values were determined for the Gram positive bacteria Bacillus subtilis, Staphylococcus aureus (two strains), Enterococcus fecalis, Enterococcus fecium, and for the Gram negative bacterium Escherichia coli.

[2] = tested on: E. fecalis; assay: as above; format: cell-based, Enterococcus fecalis; conditions: Enterococcus; HBI medium, 16 to 18 hours at 37°C; read-out: MIC (µg/ml) E. fecalis
Protocol: as §1, §2

[3] = biological target: T1, B. subtilis Pol IIIC (Bacillus subtilis, UniProt P13267); assay: Polymerase IIIC (Pol IIIC) assay, determination of Ki values; format: biochemical; conditions: Ki (µM) Pol IIIC, assay in absence of dGTP or dATP; Ki is the concentration that reduces control polymerase IIIC activity by 50 percent
T1 construct: made in house
T1 sequence (P13267 whole entry): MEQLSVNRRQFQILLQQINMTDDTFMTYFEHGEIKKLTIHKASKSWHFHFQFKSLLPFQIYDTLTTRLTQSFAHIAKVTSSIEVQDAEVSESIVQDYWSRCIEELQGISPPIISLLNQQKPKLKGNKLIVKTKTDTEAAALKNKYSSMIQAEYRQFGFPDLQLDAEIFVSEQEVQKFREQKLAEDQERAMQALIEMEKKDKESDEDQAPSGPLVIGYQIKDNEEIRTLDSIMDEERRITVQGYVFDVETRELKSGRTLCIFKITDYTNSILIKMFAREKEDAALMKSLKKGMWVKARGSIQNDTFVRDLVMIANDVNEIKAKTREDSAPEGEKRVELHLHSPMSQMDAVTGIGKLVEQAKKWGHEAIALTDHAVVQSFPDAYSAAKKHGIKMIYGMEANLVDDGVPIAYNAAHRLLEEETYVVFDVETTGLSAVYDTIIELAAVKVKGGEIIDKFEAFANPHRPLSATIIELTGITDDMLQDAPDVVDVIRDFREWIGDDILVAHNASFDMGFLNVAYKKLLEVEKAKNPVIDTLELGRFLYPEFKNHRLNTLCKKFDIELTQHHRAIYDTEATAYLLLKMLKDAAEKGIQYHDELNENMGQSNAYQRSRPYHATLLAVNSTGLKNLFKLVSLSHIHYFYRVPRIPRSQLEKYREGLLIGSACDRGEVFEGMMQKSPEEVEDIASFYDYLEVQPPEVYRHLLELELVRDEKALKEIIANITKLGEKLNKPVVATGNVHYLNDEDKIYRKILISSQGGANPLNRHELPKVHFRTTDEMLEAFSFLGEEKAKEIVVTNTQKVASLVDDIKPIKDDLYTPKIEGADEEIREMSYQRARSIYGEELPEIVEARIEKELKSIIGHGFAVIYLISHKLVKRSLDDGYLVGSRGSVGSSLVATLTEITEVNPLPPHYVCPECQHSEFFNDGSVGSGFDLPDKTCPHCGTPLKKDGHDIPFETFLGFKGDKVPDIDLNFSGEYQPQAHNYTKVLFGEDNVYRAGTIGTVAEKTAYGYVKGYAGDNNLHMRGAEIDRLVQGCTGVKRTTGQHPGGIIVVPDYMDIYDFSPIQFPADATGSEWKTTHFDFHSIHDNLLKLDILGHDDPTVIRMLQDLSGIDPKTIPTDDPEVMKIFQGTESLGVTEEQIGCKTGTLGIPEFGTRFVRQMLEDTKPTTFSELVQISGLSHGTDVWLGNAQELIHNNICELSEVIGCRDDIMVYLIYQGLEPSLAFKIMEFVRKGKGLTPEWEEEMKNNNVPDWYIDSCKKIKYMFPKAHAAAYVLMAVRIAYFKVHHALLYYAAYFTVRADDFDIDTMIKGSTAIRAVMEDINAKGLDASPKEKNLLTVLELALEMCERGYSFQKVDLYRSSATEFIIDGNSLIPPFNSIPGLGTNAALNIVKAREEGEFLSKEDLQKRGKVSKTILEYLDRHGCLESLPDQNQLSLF
Protocol: as §1

[4] = tested on: E. fecium; assay: Minimal Inhibitory Concentration (MIC) determination, 96 well plates; format: cell-based, Enterococcus fecium; conditions: Enterococcus; HBI medium, 16 to 18 hours at 37°C; read-out: MIC (µg/ml) E. fecium
Protocol: as §1, §2

[5] = tested on: B. subtilis; assay: as above; format: cell-based, Bacillus subtilis; conditions: Bacillus subtilis; HBI medium, 16 to 18 hours at 37°C; read-out: MIC (µg/ml) B. subtilis
Protocol: as §1, §2

[6] = tested on: E. coli; assay: as above; format: cell-based, Escherichia coli; conditions: Escherichia coli; HBI medium, 16 to 18 hours at 37°C; read-out: MIC (µg/ml) E. coli
Protocol: (§3) The following methods were used to characterize representative compounds. Minimal Inhibitory Concentration (MIC) determinations. MIC values were determined in 96 well plates, with bacterial growth monitored at OD 600 nm in 200µl following an initial bacterial seeding at approximately 1x10^5 colony forming units (CFU)/ml. Each drug is evaluated at five concentrations, with five data points at each dilution. MIC values (µg/ml) were determined against actively growing cultures in Heart-Brain Infusion (HBI) medium. Cell growth in cultures supplemented with a test compound was calculated as a percent of control at OD 600 nm after 16 to 18 hours at 37°C. This plate format conserves test compound and provides precise, quantitative data with low standard deviation determinations. Polymerase IIIC (Pol IIIC) assay. DNA polymerase activity (or inhibition thereof) was measured in a 96-well plate format. B. subtilis Pol IIIC was isolated as described by Hammond and Brown (Protein Expr. Purif., 3: 65-70 (1992)). Each 25 µl assay contained 30 mM Tris, pH 7.5, 10 mM magnesium acetate, 4 mM dithiothreitol, 20% glycerol, with 25 µM dATP, dCTP, dGTP and 10 µM dTTP (^3H-labelled at 1.44 Ci/mmole) and 0.4 mg/ml activated calf thymus DNA as substrates, as described previously (see Barnes et al, op. cit). Assays were initiated by the addition of 0.025 to 0.06 units of enzyme 1 unit is the amount required to incorporate 250 pmoles of [^3H] dTMP in a standard assay), incubated for 10 minutes at 30°C and terminated by the addition of 200 µl of cold 10% trichloroacetic acid (TCA),10 mM sodium pyrophosphate. Precipitated labeled DNA was collected on glass fiber filter plates, washed, dried, and counted in a liquid scintillation counter. Determination of Ki values. DNA polymerase activity was measured in a 96-well plate format in the absence of dGTP or dATP, depending on the structure of the test compound. Each 25 µl assay contained 30 mM Tris, pH 7.5, 10 mM magnesium acetate, 4 mM dithiothreitol, 20% glycerol, with 25 µM dATP, dCTP, and 10 µM dTTP (^3H-labelled at 1.44 Ci/mmole) and 0.4 mg/ml activated calf thymus DNA as substrates, as described previously. To each well were added 2 µl of compound solution to give final concentrations ranging from 20 - 0.027 µg/ml in the assay. Assays were initiated by the addition of 0.025 to 0.06 units of enzyme (1 unit is the amount required to incorporate 250 pmoles of [^3H] dTMP in a standard assay), incubated for 10 minutes at 30 °C and terminated by the addition of 200 µl of cold 10% trichloroacetic acid, 10 mM sodium pyrophosphate. Precipitated labeled DNA was collected on glass fiber filter plates, washed, dried, and counted in a liquid scintillation counter. Ki is the concentration of test compound that reduces the control polymerase IIIC activity by 50 percent.
as §2

[7] = tested on: S. aureus; assay: as above; format: cell-based, Staphylococcus aureus; conditions: Staphylococcus aureus; HBI medium, 16 to 18 hours at 37°C; read-out: MIC (µg/ml) S. aureus
Protocol: as §3, §2

| Structure (SMILES) | MIC [1] [µg/mL] | MIC [2] [µg/mL] | Ki [3] [µM] | MIC [4] [µg/mL] | MIC [5] [µg/mL] | MIC [6] [µg/mL] | MIC [7] [µg/mL] |
| --- | --- | --- | --- | --- | --- | --- | --- |
| CCc1cc(Nc2cc(=O)n(CCCCN3CCN(c4cc5c(cc4F)c(=O)c(C(=O)O)cn5-c4ccc(F)cc4F)C[C@H]3C)c(=O)[nH]2)ccc1C [Compound 90, (R)-3-{4-[1-(1-{2,4-difluorophenyl}-3-carboxy-4-oxo-6-fluoro-7-quinolyl)-3-methyl-4-piperazinyl]butyl}-6-(3-ethyl-4-methylanilino)uracil] | 0.313 (≈ 0.437 µM) | 1.25 (≈ 1.74 µM) | 0.017 | 1.25 (≈ 1.74 µM) | 0.236 (≈ 0.329 µM) | > 40 | 0.625 (≈ 0.872 µM) |
| CCc1cc(Nc2cc(=O)n(CCCCN3CCN(c4c(F)cc5c(=O)c(C(=O)O)cn(C6CC6)c5c4F)CC3CO)c(=O)[nH]2)ccc1C (centres unmarked) [Compound 91, 3-{4-[1-(1-cyclopropyl-3-carboxy-4-oxo-6,8-difluoro-7-quinolyl)-3-hydroxymethyl-4-piperazinyl]butyl}-6-(3-ethyl-4-methylanilino)uracil] | 0.625 (≈ 0.921 µM) | 2.5 (≈ 3.68 µM) | 0.011 | 2.5 (≈ 3.68 µM) | 0.235 (≈ 0.346 µM) | > 80 | 1.25 (≈ 1.84 µM) |
| CC1CN(c2c(F)cc3c(=O)c(C(=O)O)cn(C4CC4)c3c2F)CCN1CCCCn1c(=O)cc(Nc2ccc3c(c2)CCC3)[nH]c1=O (centres unmarked) [Compound 92, 3-{4-[1-(1-cyclopropyl-3-carboxy-4-oxo-6,8-difluoro-7-quinolyl)-3-methyl-4-piperazinyl]butyl}-6-(5-indanylamino)uracil] | 0.235 (≈ 0.356 µM) | 0.625 (≈ 0.946 µM) | 0.016 | 0.937 (≈ 1.42 µM) | 0.117 (≈ 0.177 µM) | 2.5 (≈ 3.78 µM) | 0.313 (≈ 0.474 µM) |
| Cc1ccc(Nc2cc(=O)n(CCCCN3CCN(c4c(F)cc5c(=O)c(C(=O)O)cn(C6CC6)c5c4F)CC3C)c(=O)[nH]2)cc1C (centres unmarked) [Compound 94, 3-{4-[1-(1-cyclopropyl-3-carboxy-4-oxo-6,8-difluoro-7-quinolyl)-3-methyl-4-piperazinyl]butyl}-6-(3,4-dimethylanilino)uracil] | 0.313 (≈ 0.482 µM) | 1.25 (≈ 1.93 µM) | 0.026 | 2.5 (≈ 3.85 µM) | 0.156 (≈ 0.24 µM) | 2.5 (≈ 3.85 µM) | 0.625 (≈ 0.963 µM) |
| CCc1cc(Nc2cc(=O)n(CCCCN3CCN(c4cc5c(cc4F)c(=O)c(C(=O)O)cn5C4CC4)C[C@H]3C)c(=O)[nH]2)ccc1C [Compound 95, (R)-3-{4-[1-(1-cyclopropyl-3-carboxy-4-oxo-6-fluoro-7-quinolyl)-3-methyl-4-piperazinyl]butyl}-6-(3-ethyl-4-methylanilino)uracil] | 0.625 (≈ 0.969 µM) | 0.625 (≈ 0.969 µM) | 0.012 | 0.625 (≈ 0.969 µM) | 0.235 (≈ 0.364 µM) | 10 (≈ 15.5 µM) | 1.25 (≈ 1.94 µM) |
